These are literature values, as cited in patent publication US6387949B1, “Substituted urea compounds useful in pain management” (AstraZeneca Canada Inc., priority 1998, dated 2002).

Bounds are passed on as bounds.

The target in one data set is δ receptor (Homo sapiens, UniProt P41143). The conditions noted are these: background statement.
The conditions of data set [1]: background statement.

δ receptor, sequence (P41143 whole entry): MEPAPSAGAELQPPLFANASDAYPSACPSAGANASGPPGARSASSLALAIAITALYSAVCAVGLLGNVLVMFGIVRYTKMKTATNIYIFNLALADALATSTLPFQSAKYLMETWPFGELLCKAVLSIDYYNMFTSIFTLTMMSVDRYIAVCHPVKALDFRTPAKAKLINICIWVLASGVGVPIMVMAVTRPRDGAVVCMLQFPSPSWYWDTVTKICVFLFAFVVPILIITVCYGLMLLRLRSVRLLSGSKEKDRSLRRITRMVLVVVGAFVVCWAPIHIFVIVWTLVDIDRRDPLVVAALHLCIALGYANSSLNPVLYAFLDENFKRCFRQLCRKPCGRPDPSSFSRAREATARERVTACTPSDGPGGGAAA

Consider `Oc1ccc2c3c1O[C@H]1c4[nH]c5ccccc5c4C[C@@]4(O)[C@@H](C2)N(CC2CC2)CC[C@]314` [naltrindole], for which, on δ receptor, the “selectivity for the δ receptor vs. μ receptor binding” value is below 10 fold. Further, the analgesic activity result in data set [1] is on record as “no analgesic activity”.
